The values below come from US20190185518A9, “WARHEAD-CONTAINING PEPTIDOMIMETIC MACROCYCLES AS MODULATORS OF BFL-1” (AILERON Therapeutics, Inc., priority 2017, published 2019).

Structures are written as SMILES. Positions of bridges follow the written chain, without caps; N, C: chain ends. Non-standard residues stand in square brackets, D forms with d. Residues, ends and D or L forms follow the SMILES beside them. Bip = N[C@@H](Cc1ccc(-c2ccccc2)cc1)C(=O)O; hPhe = N[C@@H](CCc1ccccc1)C(=O)O; R8 = C=CCCCCCC[C@@](C)(N)C(=O)O; Cit = NC(=O)NCCC[C@H](N)C(=O)O; Chg = N[C@H](C(=O)O)C1CCCCC1; S5 = C=CCCC[C@](C)(N)C(=O)O; Aib = CC(C)(N)C(=O)O

Usually Ki stands for the equilibrium dissociation constant of an inhibitor or competing ligand from its target.

The target of one experiment is Bcl-2 (Homo sapiens, UniProt P10415). The experiment is described as follows: Ki determination for Bcl-2 (BCL-2 family binding spectrum). The note with it: read-out: Ki BCL-2. From the text: To assess the binding and affinity of compounds that antagonize the interaction between a peptide and an acceptor protein, a fluorescence polarization assay (FPA) utilizing a fluoresceinated peptidomimetic macrocycle derived from a peptidomimetic precursor sequence is used, for example. The FPA technique measures the molecular orientation and mobility using polarized light and fluorescent tracer. […] A compound that antagonizes the interaction between the fluoresceinated peptidomimetic macrocycle and an acceptor protein will be detected in a competitive binding FPA experiment.
Bcl-2, sequence (P10415 whole entry, species assumed): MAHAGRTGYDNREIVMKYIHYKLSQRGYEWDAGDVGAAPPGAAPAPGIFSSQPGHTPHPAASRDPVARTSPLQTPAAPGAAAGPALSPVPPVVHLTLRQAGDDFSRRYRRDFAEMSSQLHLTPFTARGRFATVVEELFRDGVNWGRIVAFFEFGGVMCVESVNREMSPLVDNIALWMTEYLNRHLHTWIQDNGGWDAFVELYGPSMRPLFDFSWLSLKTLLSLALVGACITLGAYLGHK
For example, putative antagonist compounds (1 nM to 1 mM) and a fluoresceinated peptidomimetic macrocycle (25 nM) are incubated with the acceptor protein (50 nM) in binding buffer (140 mM NaCl, 50 mM Tris-HCL, pH 7.4) for 30 minutes at room temperature. Antagonist binding activity is measured, for example, by fluorescence polarization on a luminescence spectrophotometer (e.g. Perkin-Elmer LS50B). Kd values may be determined by nonlinear regression analysis using, for example, Graphpad Prism software (GraphPad Software, Inc., San Diego, Calif.).

For another experiment, the target named is Mcl-1 (Homo sapiens, UniProt Q07820). The experiment is described as follows: Ki determination for Mcl-1 (BCL-2 family binding spectrum). The note with it: read-out: Ki MCL-1. The procedure, abridged:
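Competitive fluorescence polarization assay in which compounds displace a fluoresceinated peptidomimetic macrocycle tracer from Mcl-1. Affinity constants were obtained by nonlinear regression.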

Mcl-1, sequence (Q07820 whole entry, species assumed): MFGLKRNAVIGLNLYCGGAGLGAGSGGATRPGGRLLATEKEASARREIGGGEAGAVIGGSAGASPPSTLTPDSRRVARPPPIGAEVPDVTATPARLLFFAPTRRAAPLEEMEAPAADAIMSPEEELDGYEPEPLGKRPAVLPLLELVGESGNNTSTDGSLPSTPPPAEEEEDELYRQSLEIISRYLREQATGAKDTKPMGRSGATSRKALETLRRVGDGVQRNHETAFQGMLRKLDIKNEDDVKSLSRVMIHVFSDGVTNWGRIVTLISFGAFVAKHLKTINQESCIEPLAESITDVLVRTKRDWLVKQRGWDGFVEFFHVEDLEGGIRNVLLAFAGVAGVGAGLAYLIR

For `CC[C@H](C)[C@H](NC(C)=O)C(=O)N[C@@H](Cc1c[nH]c2ccccc12)C(=O)N[C@H](C(=O)N[C@@H](C)C(=O)N[C@@H](CCC(N)=O)C(=O)N[C@@H](C)C(=O)N[C@@H](CC(C)C)C(=O)N[C@@H](CCCNC(N)=O)C(=O)N[C@]1(C)CCCCCCC=CCCC[C@@](C)(C(=O)N[C@@H](Cc2ccc(O)cc2)C(=O)N[C@@H](Cc2ccc(O)cc2)C(=O)N[C@@H](C)C(N)=O)NC(=O)[C@H](CC(N)=O)NC(=O)[C@H](Cc2ccccc2)NC(=O)[C@H](C)NC(=O)[C@H](CC(=O)O)NC(=O)CNC(=O)[C@H]([C@@H](C)CC)NC1=O)[C@@H](C)CC` [compound 1655] (Ac-IWIAQAL[Cit][R8]IGDAFN[S5]YYA-NH2; staple 9-16), the results for the inhibitory constant (Ki) at Bcl-2 and on Mcl-1 were 212 nM and 7.5 nM, respectively.
As to `CC[C@H](C)[C@H](NC(C)=O)C(=O)N[C@@H](Cc1c[nH]c2ccccc12)C(=O)N[C@@H](Cc1ccc(-c2ccccc2)cc1)C(=O)N[C@@H](C)C(=O)N[C@@H](CCC(N)=O)C(=O)N[C@@H](C)C(=O)N[C@@H](CC(C)C)C(=O)N[C@@H](CCCNC(=N)N)C(=O)N[C@]1(C)CCCCCCC=CCCC[C@@](C)(C(=O)N[C@@H](Cc2ccc(O)cc2)C(=O)N[C@@H](Cc2ccc(O)cc2)C(=O)N[C@@H](C)C(N)=O)NC(=O)[C@H](CC(N)=O)NC(=O)[C@H](Cc2ccccc2)NC(=O)[C@H](C)NC(=O)[C@H](CC(=O)O)NC(=O)CNC(=O)[C@H]([C@@H](C)CC)NC1=O` [compound 1686] (Ac-IW[Bip]AQALR[R8]IGDAFN[S5]YYA-NH2; staple 9-16), the inhibition constant Ki on Bcl-2 is > 1000 nM; at Mcl-1, 11 nM.
As for `CC[C@H](C)[C@H](NC(C)=O)C(=O)N[C@@H](Cc1c[nH]c2ccccc12)C(=O)N[C@H](C(=O)N[C@@H](C)C(=O)NC(C)(C)C(=O)N[C@@H](C)C(=O)N[C@@H](CC(C)C)C(=O)N[C@@H](CCCNC(=N)N)C(=O)N[C@]1(C)CCCCCCC=CCCC[C@@](C)(C(=O)N[C@@H](Cc2ccc(O)cc2)C(=O)N[C@@H](Cc2ccc(O)cc2)C(=O)N[C@@H](C)C(N)=O)NC(=O)[C@H](CC(N)=O)NC(=O)[C@H](Cc2ccccc2)NC(=O)[C@H](C)NC(=O)[C@H](CC(=O)O)NC(=O)CNC(=O)[C@H]([C@@H](C)CC)NC1=O)[C@@H](C)CC` [compound 1708] (Ac-IWIA[Aib]ALR[R8]IGDAFN[S5]YYA-NH2; staple 9-16), the inhibition constant Ki on Bcl-2 was 120 nM.
As to `CC[C@H](C)[C@H](NC(C)=O)C(=O)N[C@@H](Cc1c[nH]c2ccccc12)C(=O)N[C@H](C(=O)N[C@@H](C)C(=O)N[C@@H](CCC(N)=O)C(=O)N[C@@H](C)C(=O)N[C@@H](CC(C)C)C(=O)N[C@@H](CCCNC(=N)N)C(=O)N[C@]1(C)CCCCCCC=CCCC[C@@](C)(C(=O)N[C@@H](Cc2ccc(O)cc2)C(=O)N[C@@H](Cc2ccc(O)cc2)C(=O)N[C@@H](C)C(N)=O)NC(=O)[C@H](CC(N)=O)NC(=O)[C@H](Cc2ccccc2)NC(=O)[C@H](C)NC(=O)[C@H](CC(=O)O)NC(=O)CNC(=O)[C@H]([C@@H](C)CC)NC1=O)C1CCCCC1` [compound 1713] (Ac-IW[Chg]AQALR[R8]IGDAFN[S5]YYA-NH2; staple 9-16), the inhibition constant Ki amounted to 38.9 nM on Bcl-2 and 4.6 nM at Mcl-1.
As to `CC[C@H](C)[C@H](NC(C)=O)C(=O)N[C@@H](Cc1c[nH]c2ccccc12)C(=O)N[C@H](C(=O)N[C@@H](C)C(=O)N[C@@H](C)C(=O)N[C@@H](C)C(=O)N[C@@H](CC(C)C)C(=O)N[C@@H](CCCCN)C(=O)N[C@]1(C)CCCCCCC=CCCC[C@@](C)(C(=O)N[C@@H](Cc2ccc(O)cc2)C(=O)N[C@@H](Cc2ccc(O)cc2)C(=O)N[C@@H](C)C(N)=O)NC(=O)[C@H](CC(N)=O)NC(=O)[C@H](Cc2ccccc2)NC(=O)[C@H](C)NC(=O)[C@H](CC(=O)O)NC(=O)CNC(=O)[C@H]([C@@H](C)CC)NC1=O)[C@@H](C)CC` [compound 1737] (Ac-IWIAAALK[R8]IGDAFN[S5]YYA-NH2; staple 9-16), on Bcl-2, the Ki was 25.6 nM.
`CC[C@H](C)[C@H](NC(C)=O)C(=O)N[C@@H](Cc1c[nH]c2ccccc12)C(=O)N[C@H](C(=O)N[C@@H](C)C(=O)N[C@@H](C)C(=O)N[C@@H](C)C(=O)N[C@@H](CC(C)C)C(=O)N[C@@H](CCCNC(=N)N)C(=O)N[C@]1(C)CCCCCCC=CCCC[C@@](C)(C(=O)N[C@@H](Cc2ccc(O)cc2)C(=O)N[C@@H](Cc2ccc(O)cc2)C(=O)N[C@@H](C)C(N)=O)NC(=O)[C@H](CC(N)=O)NC(=O)[C@H](Cc2ccccc2)NC(=O)[C@H](C)NC(=O)[C@H](CC(=O)O)NC(=O)[C@H](C(C)C)NC(=O)[C@H]([C@@H](C)CC)NC1=O)[C@@H](C)CC` [compound 1739] (Ac-IWIAAALR[R8]IVDAFN[S5]YYA-NH2; staple 9-16): the inhibition constant (Ki) at Bcl-2 is 120 nM.
As for `CC[C@H](C)[C@H](NC(C)=O)C(=O)N[C@@H](Cc1c[nH]c2ccccc12)C(=O)N[C@H](C(=O)N[C@@H](C)C(=O)N[C@@H](C)C(=O)N[C@@H](C)C(=O)N[C@@H](CC(C)C)C(=O)N[C@@H](CCCNC(=N)N)C(=O)N[C@]1(C)CCCCCCC=CCCC[C@@](C)(C(=O)N[C@@H](Cc2ccc(O)cc2)C(=O)N[C@@H](Cc2ccc(O)cc2)C(=O)N[C@@H](C)C(N)=O)NC(=O)[C@H](CC(N)=O)NC(=O)[C@H](Cc2ccccc2)NC(=O)[C@H](C)NC(=O)[C@H](CCC(=O)O)NC(=O)CNC(=O)[C@H]([C@@H](C)CC)NC1=O)[C@@H](C)CC` [compound 1740] (Ac-IWIAAALR[R8]IGEAFN[S5]YYA-NH2; staple 9-16), the inhibition constant Ki at Bcl-2 stood at 142 nM.
As to `CC[C@H](C)[C@H](NC(C)=O)C(=O)N[C@@H](Cc1c[nH]c2ccccc12)C(=O)N[C@H](C(=O)N[C@@H](C)C(=O)N[C@@H](CCC(N)=O)C(=O)N[C@@H](C)C(=O)N[C@@H](CC(C)C)C(=O)N[C@@H](CCCNC(=N)N)C(=O)N[C@]1(C)CCCCCCC=CCCC[C@@](C)(C(=O)N[C@@H](Cc2ccc(O)cc2)C(=O)N[C@@H](Cc2ccc(O)cc2)C(=O)N[C@@H](C)C(N)=O)NC(=O)[C@H](CC(N)=O)NC(=O)[C@H](CCc2ccccc2)NC(=O)[C@H](C)NC(=O)[C@H](CC(=O)O)NC(=O)CNC(=O)[C@H]([C@@H](C)CC)NC1=O)[C@@H](C)CC` [compound 1743] (Ac-IWIAQALR[R8]IGDA[hPhe]N[S5]YYA-NH2; staple 9-16), the Ki at Bcl-2 was 38.9 nM; on Mcl-1 it was 2.7 nM.
The like results for `CC[C@H](C)[C@H](NC(C)=O)C(=O)N[C@@H](Cc1c[nH]c2ccccc12)C(=O)N[C@H](C(=O)N[C@@H](C)C(=O)N[C@@H](C)C(=O)N[C@@H](C)C(=O)N[C@@H](CC(C)C)C(=O)N[C@@H](CCCNC(=N)N)C(=O)N[C@]1(C)CCCCCCC=CCCC[C@@](C)(C(=O)N[C@@H](Cc2ccc(O)cc2)C(=O)N[C@@H](Cc2ccc(O)cc2)C(=O)N[C@@H](C)C(N)=O)NC(=O)[C@H](CCC(=O)O)NC(=O)[C@H](Cc2ccccc2)NC(=O)[C@H](C)NC(=O)[C@H](CC(=O)O)NC(=O)CNC(=O)[C@H]([C@@H](C)CC)NC1=O)[C@@H](C)CC` [compound 1749] (Ac-IWIAAALR[R8]IGDAFE[S5]YYA-NH2; staple 9-16) were, in that order, 30.7 nM and 1.8 nM.
Consider `CC[C@H](C)[C@H](NC(C)=O)C(=O)N[C@@H](Cc1c[nH]c2ccccc12)C(=O)N[C@H](C(=O)N[C@@H](C)C(=O)N[C@@H](C)C(=O)N[C@@H](C)C(=O)N[C@@H](CC(C)C)C(=O)N[C@@H](CCCNC(=N)N)C(=O)N[C@]1(C)CCCCCCC=CCCC[C@@](C)(C(=O)N[C@@H](CC(C)C)C(=O)N[C@@H](Cc2ccc(O)cc2)C(=O)N[C@@H](C)C(N)=O)NC(=O)[C@H](CC(N)=O)NC(=O)[C@H](Cc2ccccc2)NC(=O)[C@H](C)NC(=O)[C@H](CC(=O)O)NC(=O)CNC(=O)[C@H]([C@@H](C)CC)NC1=O)[C@@H](C)CC` [compound 1753] (Ac-IWIAAALR[R8]IGDAFN[S5]LYA-NH2; staple 9-16), for which the inhibition constant Ki at Bcl-2 came to 125 nM.
Same read-out and setting: with `CC[C@H](C)[C@H](NC(C)=O)C(=O)N[C@@H](Cc1c[nH]c2ccccc12)C(=O)N[C@H](C(=O)N[C@@H](C)C(=O)N[C@@H](C)C(=O)N[C@@H](C)C(=O)N[C@@H](CC(C)C)C(=O)N[C@@H](CCCNC(=N)N)C(=O)N[C@]1(C)CCCCCCC=CCCC[C@@](C)(C(=O)N[C@@H](Cc2ccc(O)cc2)C(=O)N[C@@H](Cc2ccc(O)cc2)C(=O)N[C@@H](CCCNC(=N)N)C(N)=O)NC(=O)[C@H](CC(N)=O)NC(=O)[C@H](Cc2ccccc2)NC(=O)[C@H](C)NC(=O)[C@H](CC(=O)O)NC(=O)CNC(=O)[C@H]([C@@H](C)CC)NC1=O)[C@@H](C)CC` [compound 1765] (Ac-IWIAAALR[R8]IGDAFN[S5]YYR-NH2; staple 9-16) the figure was 142 nM; with `CC[C@H](C)[C@H](NC(C)=O)C(=O)N[C@]1(C)CCCCCCC=CCCCC2(CCCC=CCCCCCC[C@@](C)(C(=O)N[C@@H](Cc3ccc(O)cc3)C(=O)N[C@@H](Cc3ccc(O)cc3)C(=O)N[C@@H](C)C(N)=O)NC(=O)[C@H](CC(N)=O)NC(=O)[C@H](Cc3ccccc3)NC(=O)[C@H](CCC(=O)O)NC(=O)[C@H](CC(=O)O)NC(=O)CNC(=O)[C@H]([C@@H](C)CC)NC2=O)NC(=O)[C@H](CCCNC(=N)N)NC(=O)[C@H](CC(C)C)NC(=O)[C@H](C)NC(=O)[C@H](CCC(N)=O)NC(=O)[C@H](C)NC(=O)[C@H]([C@@H](C)CC)NC1=O` (some centres unmarked) [compound 1782], 22 nM.
